Assay results taken from patent US20040198810A1 (H. Lundbeck A/S, priority 2001, published 2004).

Columns and labels:
Type in all cases: in vivo
[1] = system: primary care patients with major depression disorder; assay: 8-week, double-blind, randomised, placebo-controlled, flexible-dose clinical study; conditions: Week 1 (p=0.023) to Week 4 (p=0.002), observed cases
From the text: (§1) This has i.a. been found in the Chronic Mild Stress model (Willner P., Psychopharmachology 1997, 134, 319-329).
A total of 471 patients were randomised into the study. The all-patient-treated set comprised 469 patients and the full-analysis set comprised 468 patients.
There was an approximately 3 to 1 ratio of women to men in each treatment group, and almost all patients were Caucasian. The mean age was 43 years (SD 11). At baseline, the mean MADRS total score was approximately 29 for the treatment group, which signifies moderate to severely ill patients.

[2] = fixed dose studies (MADRS rating scale and Clinical Global Impression); conditions: escitalopram in a dose of 10 mg
[3] = system: Chronic Mild Stress model; assay: Chronic Mild Stress model; conditions: animal models
From the text: as §1

**Q.** Which “therapeutic effect versus placebo, adjusted mean change in MADRS total score” value [1] does the source give for `CN(C)CCC[C@@]1(c2ccc(F)cc2)OCc2cc(C#N)ccc21` [escitalopram, (S)-1-[3-(dimethylamino)propyl]-1-(4-fluorophenyl)-1,3-dihydro-5-isobenzofurancarbonitrile] here?
**A.** The value was “significantly superior therapeutic effect”.

**Q.** What about the “effect as determined by the MADRS rating scale and Clinical Global Impression (severity as well as improvement)” value [2] of the same molecule?
**A.** Its value is “at least same effect as citalopram in a dose of 40 mg”.

**Q.** What about the speed of response [3] of the same molecule?
**A.** Its speed of response is “faster response than citalopram-racemate”.
